Patent US20080021069A1, “Receptor Function Regulating Agent” (TAKEDA PHARMACEUTICAL COMPANY LIMITED, priority 2004, published 2008)

Legend:
[1] = system: rat pancreatic islet; experiment: Insulin secretion suppressive activity using rat pancreatic islet (palmitic acid stimulation); format: cell-based; conditions: glucose 16 mM, compound 10 μM, 30 min, mean ± SD (n = 4)
Experimental: The effect of the compound of the present invention on the insulin secretion from the rat pancreatic islet, which is induced by palmitic acid stimulation, was evaluated.
Male SD rats (7-week-old, Clea Japan, Inc.) were anesthetized with Nembutal (50 mg/kg, i.p.) and subjected to laparotomy. While confirming and following the course of the common bile duct to the peripheral thereof, and the duct was ligated at the liver side immediately from the opening of the duodenum. Then, the common bile duct was detached from the surrounding tissue on the duodenum side from the hepatic duct bifurcation and a thread was placed thereon. An indwelling needle (22G, manufactured by TERUMO CORPORATION) was inserted into the common bile duct at a position on the liver side from this part and fixed by ligation with the thread placed earlier thereon. 10 ml of 150 mg/ml collagenase (manufactured by Wako Pure Chemical Industries, Ltd., for cell dispersion)-Hank's Balanced Salt Solution (HBSS, manufactured by Invitrogen)-1% Bovine Serum Albumin (BSA, manufactured by Wako Pure Chemical Industries, Ltd.) −0.01 mg/ml DnaseI (manufactured by Roche Molecular Biochemicals)-2.5% N-2-Hydroxyethylpiperazine-N′-2-Ethane Sulfonic Acid (HEPES, manufactured by Invitrogen) was injected from the common bile duct. […]

[2] = biological target: T1, human GPR40 (Homo sapiens, UniProt O14842); experiment: GPR40 antagonist activity with changes in intracellular calcium concentration as index (NFAT-luciferase reporter, CHO(dhfr-)/GPR40-NFAT-Luc cells); format: cell-based; conditions: CHO cell line expressing human GPR40, NFAT-Luc reporter; GPR40 agonist 3-(4-((6-benzyloxy-2',6'-dimethyl-biphenyl-3-yl)methoxy)phenyl)propanoic acid 40 nM; 4 hr culture; 0.1% fatty acid-free BSA
T1 construct: expressed in transfected cells; host or cells: CHO(dhfr-) cells: line CHO-hGPR40 No. 104 of WO2004/041266, with a stably expressed NFAT-TA-Luc reporter (CHO(dhfr-)/GPR40-NFAT-Luc)
From the text: Evaluation of GPR40 antagonist activity with changes in intracellular calcium concentration as index
An assay system of GPR40 antagonist was established as follows. In this assay system, as the GPR40 agonist, 3-(4-((6-benzyloxy-2′,6′-dimethyl-biphenyl-3-yl)methoxy)phenyl)propanoic acid (compound described in Example 340 of WO2004/041266) was used.
First, NFAT-TA was cut out from pNFAT-TA-Luc (manufactured by BD Bioscience Clontech) with HindIII and NheI, the recovered fragment was inserted into pGL3 basic neo digested with HindIII and NheI to give plasmid:pGL3 basic neo NFAT-TA-Luc.
This plasmid was used for “the CHO cell line (CHO-hGPR40 No. 104), which was made to express human GPR40” described in WO2004/041266, and a cell line CHO(dhfr-)/GPR40-NFAT-Luc, wherein a reporter gene was stably expressed by a method known per se, was prepared.
This cell line was diluted with a medium (nucleic acid-free MEM (Minimum Essential Medium)—α medium added with dialyzed FBS (Fetal Bovine Serum) to a final concentration of 10%) in such a manner that 2×10^4 cells/100 μl would be contained, dispensed to a white walled 96 well plate (manufactured by Coster) by 100 μl per well, and cultured overnight in a CO2 incubator. Then the medium was removed by suction from the 96 well plate, and a 10 mM test compound-dimethyl sulfoxide (manufactured by Wako Pure Chemical Industries, Ltd.) solution diluted with a medium (nucleic acid-free MEM—α medium added with bovine serum albumin (BSA) free of fatty acid to a final concentration of 0.1%) to each concentration was added by 50 μl per well. Further, 3-(4-((6-benzyloxy-2′,6′-dimethyl-biphenyl-3-yl)methoxy)phenyl)propanoic acid diluted with a medium (nucleic acid-free MEM-α (medium added with BSA free of fatty acid to a final concentration of 0.1%) to a final concentration of 40 nM was added to the 96 well plate by 50 μl per well.
After culture in a CO2 incubator for 4 hr, the culture medium was removed from the 96 well plate. Then, PicaGene (manufactured by TOYO INK MFG. CO., LTD.) was added to the 96 well plate, and the luciferase activity was determined using PerkinElmer ARVO (trade name, manufactured by PerkinElmer), based on which changes in the intracellular calcium concentration were evaluated. After assay of luciferase activity, nonlinear regression analysis was performed using PRISM 3 (trade name, manufactured by GraphPad) and IC50 value was calculated with changes in the intracellular calcium concentration as an index.
In the same manner as in Experimental Example 1, the IC50 value of the compound of the present invention was calculated.

T1 sequence (O14842 whole entry): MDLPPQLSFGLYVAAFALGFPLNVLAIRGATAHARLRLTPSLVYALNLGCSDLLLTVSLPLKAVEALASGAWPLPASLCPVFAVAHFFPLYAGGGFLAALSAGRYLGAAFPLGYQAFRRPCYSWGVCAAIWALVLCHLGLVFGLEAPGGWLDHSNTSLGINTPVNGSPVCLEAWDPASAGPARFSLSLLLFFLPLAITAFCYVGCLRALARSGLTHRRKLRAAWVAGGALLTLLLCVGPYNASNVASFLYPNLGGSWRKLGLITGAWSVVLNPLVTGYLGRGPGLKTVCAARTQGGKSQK

Row | Compound | melting point | IC50 [2] | insulin secretion amount ([1]; palmitic acid 0 mM) | insulin secretion amount ([1]; palmitic acid 1 mM)
1 | CCOc1ccc(-n2c(SCc3ccc(Cl)cc3)nc3ccc(Cl)cc32)cc1 [Example 10, 6-chloro-2-[(4-chlorobenzyl)thio]-1-(4-ethoxyphenyl)-1H-benzimidazole] | 129 to 130 °C | < 100 nM | 353 ± 122 pg/ng DNA | 369 ± 141 pg/ng DNA
2 | CCCOc1ccc(-n2c(SCc3ccc(Cl)cc3)nc3cc(Cl)ccc32)cc1.Cl [Example 121, 5-Chloro-2-[(4-chlorobenzyl)thio]-1-(4-propoxyphenyl)-1H-benzimidazole hydrochloride] | 104 to 112 °C | < 100 nM |  | 
3 | CCCCOc1ccc(-n2c(SCc3ccc(Cl)cc3)nc3cc(Cl)ccc32)cc1.Cl [Example 122, 1-(4-Butoxyphenyl)-5-chloro-2-[(4-chlorobenzyl)thio]-1H-benzimidazole hydrochloride] | 83 to 89 °C | < 100 nM |  | 
4 | Clc1ccc(CSc2nc3ccc(Cl)cc3n2-c2ccc(C3OCCO3)cc2)cc1 [Example 132, 6-Chloro-2-[(4-chlorobenzyl)thio]-1-[4-(1,3-dioxolan-2-yl)phenyl]-1H-benzimidazole] | 129 to 130 °C | < 100 nM |  | 

Now from value to compound, other results behind:

Row | melting point | IC50 [2] | Compound | insulin secretion amount ([1]; palmitic acid 0 mM) | insulin secretion amount ([1]; palmitic acid 1 mM)
5 | 90 to 92 °C | < 100 nM | FC(F)(F)COc1ccc(-n2c(SCc3ccc(Cl)cc3)nc3cc(Cl)c(Cl)cc32)cc1 [Example 131, 5,6-Dichloro-2-[(4-chlorobenzyl)thio]-1-[4-(2,2,2-trifluoroethoxy)phenyl]-1H-benzimidazole] |  | 
6 | 139 to 140 °C | < 100 nM | FC(F)C(F)(F)Oc1ccc(-n2c(SCc3ccc(Cl)cc3)nc3ccc(Cl)cc32)cc1 [Example 135, 6-Chloro-2-[(4-chlorobenzyl)thio]-1-[4-(1,1,2,2-tetrafluoroethoxy)phenyl]-1H-benzimidazole] |  | 
